Laboratory results from article PMC6105804, “In Vitro and In Vivo Evaluation of APX001A/APX001 and Other Gwt1 Inhibitors against Cryptococcus” (Antimicrobial Agents and Chemotherapy, 2018).

How the values were obtained:
C. neoformans strain H99 = experiment: Murine model of cryptococcal meningitis, APX001 alone and with FLC (no ABT); type: in vivo, Cryptococcus neoformans; conditions: monotherapy 7 days; APX001 390 mg/kg TID oral gavage, FLC 80 mg/kg/day i.p.; male CD-1 mice
Description: The efficacies of APX001 and FLC were evaluated in a well-established mouse CM model ([34]). Since Cryptococcus infections can be hematogenously disseminated to other organs, the numbers of CFU in both lung and brain tissue were evaluated. Male CD-1 mice were infected with 5.9 × 10^4 CFU of C. neoformans strain H99 via lateral tail vein injection. Mice were assigned to four groups (n = 10), consisting of (i) treatment with APX001, (ii) treatment with APX001 plus FLC, (iii) treatment with FLC, or (iv) no treatment as a control. Treatment was initiated within 1 h after infection. APX001 was administered by oral gavage at a dose of 390 mg/kg thrice daily (TID), with each dose being administered roughly 8 h apart. […] FLC (2 mg/ml; Sagent Pharmaceuticals, Schaumburg, IL) was administered at a dose of 80 mg/kg/day intraperitoneally (i.p.).
Brain and lung burdens in mice were measured at 7 days postinfection with C. neoformans H99. Male CD-1 mice were infected with 5.9 × 10^4 CFU of C. neoformans strain H99 via the lateral tail vein. Treatment was initiated at about 1 h postinfection and continued for 7 days. APX001 was administered by oral gavage at a dose of 390 mg/kg thrice daily, with each dose being administered roughly 8 h apart. FLC (2 mg/ml; Sagent Pharmaceuticals, Schaumburg, IL) was administered at a dose of 80 mg/kg/day i.p. once daily. Fungal burden data were log10 transformed and evaluated using Kruskal-Wallis tests with Dunn's multiple-comparison test for post hoc analysis (Prism software, v5; GraphPad Software, Inc., San Diego, CA). A P value of ≤0.05 was considered statistically significant (*, P ≤ 0.05; **, P ≤ 0.01; ***, P ≤ 0.001). The 95% confidence interval (CI) is presented.
C. neoformans strain H99 was grown in yeast extract-peptone-dextrose broth at 30°C on a shaker (220 rpm) for 24 h, centrifuged (1,980 relative centrifugal force), and washed twice in phosphate-buffered saline (PBS), resuspended in PBS, and quantified by hemacytometric count. Male CD-1 mice were infected with ∼5 × 10^4 CFU per mouse via lateral tail vein injection of 100 μl. Mice were weighed, and treatment was begun within 1 h after infection. Treatments were administered daily for 7 days. Mice were weighed daily and observed for acute and chronic adverse symptoms. Mice were sacrificed on day 8, and the brain and left lung were homogenized and cultured for quantitative determination of the tissue burden (number of CFU per gram of tissue). Tissues were homogenized for 25 s in 1 ml phosphate-buffered saline using two 6.5-mm steel beads and a Mini-Beadbeater 16 apparatus (Biospec Products, Inc., Bartlesville, OK) and serially diluted in 10-fold steps. Aliquots (100 μl) of homogenate were plated and incubated for 3 to 7 days at 37°C. Fungal burden data were log10 transformed and evaluated using Kruskal-Wallis tests with Dunn's multiple-comparison test for post hoc analysis (Prism software, v5; GraphPad Software, Inc., San Diego, CA). A P value of ≤0.05 was considered statistically significant.

[1] = design: method as in ref 11, 12 = [11]; 11. Hodges MR , Ople E , Shaw KJ , Mansbach RS , van Marle S , van Hoogdalem E , Kramer W , Wedel P 2017 Phase 1 study to assess safety, tolerability and pharmacokinetics of single and multiple oral d || [12]; 12. Hodges MR , Ople E , Shaw KJ , Mansbach RS , van Marle S , van Hoogdalem E , Wedel P , Kramer W 2017 First-in-human study to assess safety, tolerability and pharmacokinetics of APX001 administered; conditions: phase 1 studies in healthy volunteers; cited from earlier work
[2] = system: Candida tropicalis strains; design: method as in ref 24 = [24]; 24. Watanabe NA , Horii T , Miyazaki M , Hata K 2011 In vitro activity of E1210 and in vivo activity of E1211, a water-soluble prodrug of E1210, in combination with other antifungals, abstr F1-1378 .; conditions: cited from earlier work
strains of C. albicans = system: strains of C. albicans; design: method as in ref 24 = [24]; 24. Watanabe NA , Horii T , Miyazaki M , Hata K 2011 In vitro activity of E1210 and in vivo activity of E1211, a water-soluble prodrug of E1210, in combination with other antifungals, abstr F1-1378 .; conditions: cited from earlier work
[3] = mouse, in vivo; cited from earlier work

| SMILES | reduction in brain fungal burden vs untreated control (C. neoformans strain H99) | reduction in lung fungal burden vs untreated control (C. neoformans strain H99) | exposures in humans [1] | half-life in humans [1] | strains with synergy with FLC [2] | strains with synergy with FLC (strains of C. albicans) | half-life in mice [3] |
| --- | --- | --- | --- | --- | --- | --- | --- |
| OC(Cn1cncn1)(Cn1cncn1)c1ccc(F)cc1F [FLC, fluconazole, reference compound] | 1.04 log10 CFU/g | 1.30 log10 CFU/g |  |  |  |  |  |
| Nc1ncccc1-c1cc(Cc2ccc(COc3ccccn3)cc2)no1 [APX001A] |  |  | ≥ 200 µg·h/mL | 60 h | 9 of 10 | 2 of 20 | 1.40 to 2.75 h |
